Laboratory results: patent publication US20120055467A1, “METERED-DOSE INHALER AND METHOD OF USING THE SAME” (CHIESI FARMACEUTICI S.P.A., priority 2010, published 2012)

Key:
[1] = Plume duration measured with in-line PC microphone, dual orifice actuator; format: physicochemical; settings: Ex 8, individual can
Procedure: For Example 8, plume duration was measured using an in-line PC microphone in conjunction with Audacity 1.2.6 software.
Formulation combinations 17a-18a and 17b-18b are fired through the dual orifice actuator, as shown at 121 in FIG. 17B. Plume duration was measured for the simultaneous actuation of two 25 μL valves and two 63 μL valves and compared with plume duration for the individual cans. […] The two formulation combinations were: […]

[2] = Andersen Cascade Impactor (ACI) evaluation of pMDI spray drug delivery characteristics; format: physicochemical
Procedure: Spray characteristics of the system were evaluated by an Andersen cascade impactor fitted with a USP throat (App. 1, USP 33). […] This was repeated twice. Pre- and post-shot weights were recorded. […] The solutions were analysed by using a UPLC/MS (Ultra Performance Liquid Chromatography/Mass Spectrometry) system for the determination of the drug deposition.

[3] = Ex 1, Dual MDI, Formulations 1+2, single 0.22 mm actuator orifice, mean, n=3
[4] = Ex 1, Dual MDI, Formulations 1+2, single 0.30 mm actuator orifice, mean, n=3
[5] = Ex 1, Standard MDI, single can, 0.22 mm actuator orifice, mean, n=3
[6] = Ex 1, Standard MDI, single can, 0.30 mm actuator orifice, mean, n=3
[7] = Ex 2/3, Standard MDI, single can, 0.22 mm orifice, mean, n=3
[8] = Ex 2, Dual MDI, Formulations 3+4, single 0.22 mm orifice, mean, n=2
[9] = Ex 4, Dual-MDI, Formulation 6 + Formulation 7 (HFA 134a), single 0.22 mm orifice, mean, n=2
[10] = Ex 4, Standard MDI, high ethanol (26% w/w) BDP 100 μg, 0.22 mm orifice, mean, n=2
[11] = Ex 6, dual can, BDP 25 μL + BUD 100 μL, single 0.22 mm orifice, mean, n=2
[12] = Ex 6, dual can, BDP 50 μL + BUD 50 μL, single 0.22 mm orifice, mean, n=2
[13] = Ex 6, dual can, BDP 100 μL + BUD 25 μL, single 0.22 mm orifice, mean, n=2
[14] = Ex 6, single can, 50 μg dose, metered volume 25 μL, 0.22 mm actuator, mean, n=2
[15] = Ex 6, single can, 50 μg dose, metered volume 50 μL, 0.22 mm actuator, mean, n=2
[16] = Ex 6, single can, 50 μg dose, metered volume 100 μL, 0.22 mm actuator, mean, n=2
[17] = Ex 7, Dual can, Formulations 15+16 simultaneously, dual orifice actuator, mean, n=2
[18] = Ex 7, Single can through dual orifice actuator, mean, n=2
[19] = Ex 9, Dual can, Formulations 17a+18a simultaneously, dual orifice actuator, mean, n=2
[20] = Ex 9, Single can through dual orifice actuator, mean, n=2
[21] = Ex 11, Dual can single orifice, Formulations 9+12, 0.30 mm orifice, mean, n=2
[22] = Ex 11, Single reservoir conventional MDI, 50/50, 0.30 mm orifice, mean, n=2
[23] = Ex 19, dual reservoir-single orifice prototype (FIG. 14B)
[24] = Ex 20, triple reservoir-single orifice prototype (FIG. 16B)

Plume duration ([1]; valve size 25 μL (Formulation 18a BDP upright, 17a budesonide inverted)): 0.317 s
Plume duration ([1]; valve size 63 μL (Formulation 18b BDP upright, 17b budesonide inverted)): 0.545 s
Delivered Dose ([2]; Ex 1, Dual MDI, Formulations 1+2 (each BDP 50 μg/25 μl, 13% ethanol, 1.3% glycerol) mixed, single 0.22 mm actuator orifice, mean, n=3): 99.3 µg
FPD ≦ 5 μm [2, 3]: 44.6 µg
FPF [2, 3]: 45.0%
MMAD [2, 3]: 2.9 μm
Delivered Dose [2, 4]: 95.6 µg
FPD ≦ 5 μm [2, 4]: 27.1 µg
FPF [2, 4]: 28.3%
MMAD [2, 4]: 3.0 μm
Delivered Dose ([2]; Ex 1, Standard MDI, single can BDP 100 μg/50 ul, 13% ethanol, 1.3% glycerol, 0.22 mm actuator orifice, mean, n=3): 89.8 µg
FPD ≦ 5 μm [2, 5]: 41.9 µg
FPF [2, 5]: 46.6%
MMAD [2, 5]: 3.0 μm
Delivered Dose [2, 6]: 89.1 µg
FPD ≦ 5 μm [2, 6]: 26.2 µg
FPF [2, 6]: 29.4%
MMAD [2, 6]: 3.3 μm
Delivered Dose ([2]; Ex 2/3, Standard MDI, single can (BDP 100 μg/50 μl or formoterol fumarate 6 μg/50 μl), 0.22 mm orifice, mean, n=3): 99.3 µg
FPD ≦ 5 μm [2, 7]: 44.6 µg
FPF [2, 7]: 45.0%
MMAD [2, 7]: 2.9 μm
Delivered Dose ([2]; Ex 2, Dual MDI, Formulation 3 (formoterol fumarate 6 μg/25 μl) + Formulation 4 (BDP 100 μg/25 μl, glycerol) mixed, single 0.22 mm orifice, mean, n=2): 97.9 µg
FPD ≦ 5 μm [2, 8]: 52.5 µg
FPF [2, 8]: 53.6%
MMAD [2, 8]: 2.5 μm
Delivered Dose ([2]; Ex 4, Dual-MDI, Formulation 6 (BDP 100 μg/25 μl, 26% ethanol) + Formulation 7 (100% HFA 134a, 25 μl), single 0.22 mm orifice, mean, n=2): 86.4 µg
FPD ≦ 5 μm [2, 9]: 41.1 µg
FPF [2, 9]: 47.5%
MMAD [2, 9]: 2.7 μm
FPD ≦ 5 μm [2, 10]: 26.7 µg
FPF [2, 10]: 26.5%
MMAD [2, 10]: 3.5 μm
Delivered Dose ([2]; Ex 4, Standard MDI, single can BDP 100 μg/25 μl, 26% w/w ethanol, 1.3% glycerol, 0.22 mm orifice, mean, n=2): 100.6 µg
Delivered Dose [2, 11]: 49.4 µg
FPD ≦ 5 μm [2, 11]: 18.5 µg
FPF [2, 11]: 37.3%
MMAD [2, 11]: 2.6 μm
Delivered Dose [2, 12]: 38.2 µg
FPD ≦ 5 μm [2, 12]: 16.8 µg
FPF [2, 12]: 44.1%
MMAD [2, 12]: 1.9 μm
Delivered Dose [2, 13]: 45.5 µg
FPD ≦ 5 μm [2, 13]: 18.6 µg
FPF [2, 13]: 40.8%
MMAD [2, 13]: 1.8 μm
MMAD ([2]; Ex 6, single can configuration, 0.22 mm actuator, across metered volumes 25-100 μL): 1.1-1.2 μm
Delivered Dose ([2]; Ex 6, single can, 50 μg dose, metered volume 25 μL (Formulation 9 / 12), 0.22 mm actuator, mean, n=2): 52.0 µg
FPD ≦ 5 μm [2, 14]: 31.1 µg
FPF [2, 14]: 59.8%
MMAD [2, 14]: 1.2 μm
Delivered Dose ([2]; Ex 6, single can, 50 μg dose, metered volume 50 μL (Formulation 10 / 13), 0.22 mm actuator, mean, n=2): 45.6 µg
FPD ≦ 5 μm [2, 15]: 24.7 µg
FPF [2, 15]: 54.0%
MMAD [2, 15]: 1.2 μm
Delivered Dose ([2]; Ex 6, single can, 50 μg dose, metered volume 100 μL (Formulation 11 / 14), 0.22 mm actuator, mean, n=2): 48.8 µg
FPD ≦ 5 μm [2, 16]: 19.2 µg
FPF [2, 16]: 39.4%
MMAD [2, 16]: 1.1 μm
Delivered Dose ([2]; Ex 7, Dual can, Formulations 15+16 (both with glycerol, 50 μg/25 μl) fired simultaneously through dual orifice actuator (0.22 mm), mean, n=2): 41.5 µg
FPD ≦ 5 μm [2, 17]: 12.7 µg
FPF [2, 17]: 30.6%
MMAD [2, 17]: 2.5 μm
FPD ≦ 5 μm [2, 18]: 17.0 µg
FPF [2, 18]: 47.2%
MMAD [2, 18]: 2.3 μm
Delivered Dose ([2]; Ex 7, Single can, fired individually through dual orifice actuator (0.22 mm), Formulation 15 inverted, Formulation 16 upright, mean, n=2): 36.0 µg
Delivered Dose ([2]; Ex 9, Dual can, Formulation 17a (budesonide, glycerol) + 18a (BDP, no glycerol) simultaneously through dual orifice actuator, mean, n=2): 40.8 µg
FPD ≦ 5 μm [2, 19]: 12.7 µg
FPF [2, 19]: 31.1%
MMAD [2, 19]: 1.5 μm
FPD ≦ 5 μm [2, 20]: 16.2 µg
FPF [2, 20]: 55.8%
MMAD [2, 20]: 0.9 μm
Delivered Dose ([2]; Ex 9, Single can, fired individually through dual orifice actuator, Formulation 17a inverted, 18a upright (50 μg/25 μL), mean, n=2): 29.1 µg
Metered Dose ([2]; Ex 11, Dual can single orifice, Formulation 9 (BDP 50/25) + Formulation 12 (budesonide 50/25, glycerol), 0.30 mm orifice, mean, n=2): 59.5 µg
Delivered Dose [2, 21]: 55.2 µg
FPD [2, 21]: 16.3 µg
FPF [2, 21]: 29.5%
MMAD [2, 21]: 2.8 μm
Metered Dose ([2]; Ex 11, Single reservoir conventional MDI, 50 μg/50 μl (Formulation 10 / 13), 0.30 mm orifice, mean, n=2): 52.7 µg
Delivered Dose [2, 22]: 47.1 µg
FPD [2, 22]: 16.6 µg
FPF [2, 22]: 35.2%
MMAD [2, 22]: 1.3 μm
MMAD ([2]; Ex 13, BDP formulation 25 μl delivered simultaneously with 100 μl budesonide formulation (glycerol), single 0.30 mm orifice): 3.1 μm
MMAD ([2]; Ex 13, conventional single reservoir MDI, 0.30 mm orifice): 1.2 μm
MMAD ([2]; Ex 14a/15, comparative, conventional single reservoir MDI, 0.22 mm orifice, 50 μl valves): 1.3 μm
MMAD ([2]; Ex 14a/15, dual reservoir-dual orifice, impingement angle 60°, orifice diameter 0.25 mm, separation distance 6.0 mm): 2.3 μm
actuator deposition ([2]; Ex 14a, 15° impingement, 6.0 mm separation, stated comparable to the standard actuator): 6.1 µg
MMAD ([2]; Ex 14a, dual reservoir-dual orifice, Formulations 9+12, impingement angle 60°, orifice diameter 0.25 mm, separation distance 17.5 mm): 2.0 μm
MMAD ([2]; Ex 14a, dual reservoir-dual orifice, impingement angle 15°, orifice diameter 0.25 mm, separation distance 6.0 mm): 1.8 μm
MMAD ([2]; Ex 14a, dual reservoir-dual orifice, impingement angle 60°, orifice diameter 0.25 mm, separation distance 9.0 mm): 2.1 μm
MMAD ([2]; Ex 14a, dual reservoir-dual orifice, impingement angle 60°, orifice diameter 0.30 mm, separation distance 2.0 mm): 1.9 μm
MMAD ([2]; Ex 15, dual reservoir, Formulations 9+12 through a single 0.30 mm diameter orifice): 2.8 μm
Delivered Dose [2, 23]: 67.6 µg
FPD [2, 23]: 30.2 µg
FPF [2, 23]: 44.7%
MMAD [2, 23]: 1.3 μm
Metered Dose ([2]; Ex 19, dual reservoir-single orifice prototype (FIG. 14B), BDP/Formoterol 100/6 μg/25 μl + glycopyrronium bromide 12.5 μg/25 μl): 92.8 µg
Delivered Dose [2, 24]: 60.8 µg
FPD [2, 24]: 21.2 µg
FPF [2, 24]: 34.9%
MMAD [2, 24]: 1.4 μm
Metered Dose ([2]; Ex 20, triple reservoir-single orifice prototype (FIG. 16B), BDP/Formoterol + glycopyrronium bromide + budesonide 50 μg/25 μl): 85.9 µg
Compound: CCC(=O)OCC(=O)[C@@]1(OC(=O)CC)[C@@H](C)C[C@H]2[C@@H]3CCC4=CC(=O)C=C[C@]4(C)[C@@]3(Cl)[C@@H](O)C[C@@]21C [BDP, Beclometasone dipropionate]
